The values that follow come from patent US20170184604A1, “DD1ALPHA RECEPTOR AND USES THEREOF IN IMMUNE DISORDERS” (THE GENERAL HOSPITAL CORPORATION, priority 2014, published 2017).

Test [1] concerns CD4+ or CD8+ T cells from wt- or DD1α−/− mice. Kind of test: Mouse T cell activation assay (CFSE proliferation). Format: cell-based. How it is done: Enriched CD4+ and CD8+ T cells from Wt and DD1α−/− mice were stimulated, with 2.5 μg/ml anti-CD3 alone or together with DD1α-Ig or control Ig. The proliferations of CD4+ T cells (top graphs) or CD8+ T cells (bottom graphs) were determined by the percentage of CFSE-diluted CD8+ cells on day 3. The levels of cytokines (IFN-γ and TNF-α) in culture supernatant on day 2 were analyzed by ELISA. The results represent mean±SD from three experiments.
The inventors have discovered that DD1αregulates T cell activation through DD1α on T cells. […] The proliferations of CD4+ T cells were determined by percentage of CFSE-diluted CD4+ cells on day 3 and IFN-γ and levels in culture supernatants on day 2 were analyzed by ELISA. […] The proliferations of CD8+ T cells were determined by percentage of CD8+ T cells containing diluted CFSE signal on day 3. The cytokine levels in culture supernatant were analyzed by ELISA on day 2.
The amount of Ig protein was kept constant at 10 μg/ml by the addition of control Ig protein. Human CD4+ or CD8+ T cells were purified from freshly isolated PBMCs using CD4+ T Cell Isolation Kit II, human or CD8+ T Cell Isolation Kit, human (Miltenyi Biotec). Mouse CD4+ and CD8+ T cells were purified from splenocytes freshly isolated from mice using CD4+ T Cell Isolation Kit II, mouse or CD8a+ T Cell Isolation Kit II, mouse (Miltenyi Biotec). Purity was confirmed to be over 90% by flow cytometry. The T cells were labeled with 1 μM CFSE, quenched by cold FBS and incubated in the anti-CD3 & Ig proteins-coated plates. On day 2 after stimulation, supernatant was collected and cytokines were assayed by ELISA. On day 3, cells were stained with anti-CD4-APC (OKT4, eBioscience for human CD4+ T cells; RM4-5, eBioscience for mouse CD4+ T cells) or anti-CD8-APC (SK1, eBioscience for human CD8+ T cells; 53-6.7, eBioscience for mouse CD8+ T cells) and then analyzed for CFSE dilution by flow cytometry.

In a further test the test system is DD1α. Kind of test: Ig fusion protein-pull down assay. Format: binding, human. The protocol: (§1) FIGS. 6A-6E show physical association of DD1α with PD1 but not with PD-L1. (FIG. 6A) Interaction of DD1α with PD1 or DD1α. […] The bound Ig fusion proteins were detected with anti-Ig-APC. Empty vector (pcDNA3.1)-transfected cells stained with Ig proteins are shown as a negative control (gray filled) and other staining is shown as black open. (FIG. 6B) DD1α binds to both DD1α and PD1 on CD4+ T cells. Purified CD4+ T cells from Wt and DD1α−/− mice were assayed for binding to Ig fused DD1α or PD1 proteins. Cells were incubated with DD1α-Ig (open), PD1-Ig (open), or control Ig proteins (gray filled) and the bound Ig fusion proteins were detected by anti-Ig-APC. […] The bound Ig fusion proteins were detected by anti-Ig-APC. Binding amounts were determined by percentage of APC positive cells compared to control Ig protein-bound cells. (FIG. 6C) Ig-pulldown experiments show DD1α interaction with both DD1α and PD1. […] The bead bound proteins were eluted and determined by western blot analysis using anti-HA antibody (asterisks). (FIG. 6D) Ig fusion proteins (control Ig, DD1α-Ig, or PD1-Ig) were incubated with lysates from Nutlin-3-treated MCF7 cells and pulled down using protein A/G agarose. The bead bound proteins were eluted and detected by western blot analysis with anti-DD1α or anti-PD1 antibody (asterisk). (FIG. 6E) p53-mediated induction of PD1 and PD-L1. MCF7 cells were treated by Nutlin-3 (10 μM) for 1 to 3 days. MCF7 cells were transfected with control siRNA or p53 siRNA for 24 hours and treated with CPT (500 nM) or DMSO (control) for 1 and 2 days. The levels of indicated proteins were analyzed by western blot analysis. Total RNAs from control siRNA or p53 siRNA transfected MCF7 cells were assessed for mRNA levels of PD1 or PD-L1 by real-time quantitative PCR. PD1 or PD-L1 mRNA levels were normalized to 36B4 expression and shown as mean±SD (n=3). Protein levels of PD1 and PD-L1 were examined in EJ-p53tet cells in the absence or presence of tetracycline (tet), ZR75-1 cells treated with CPT (500 nM), or A375 cells exposed to 13 Gy ionizing irradiation for the indicated times.
Ig fusion proteins (control Ig, DD1α-Ig, or PD1-Ig) were incubated with lysates from Nutlin-3-treated MCF7 cells and pulled down using proten A/G agarose. The bead bound proteins were eluted and detected by western blot analysis with anti-DD1α or anti-PD1 antibody.
Based on the results that both PD-1 and DD1α receptors on T cells contribute to the co-inhibitory roles for DD1α(FIG. 5), it was tested whether DD1α could physically and functionally associate with PD-1 receptor. […] To confirm the specificity of this interaction, the inventors carried out Ig fusion protein-pull down assays using lysates from PD-1, DD1α, or TIM3-transfected 293T cells. […]

In test [2] the test system is wt- or DD1α−/− mouse CD4+ T cells. As to the kind of experiment: Ig fusion protein binding to CD4+ T cells from Wt and DD1α−/− mice. The protocol: as §1, with “(FIG. 6D) Ig fusion proteins (control Ig, DD1α-Ig, or PD1-Ig) were incubated with lysates from Nutlin-3-treated MCF7 cells and pulled down using protein A/G agarose.” left out, “(FIG. 6E) p53-mediated induction of PD1 and PD-L1. MCF7 cells were treated by Nutlin-3 (10 μM) for 1 to 3 days. MCF7 cells were transfected with control siRNA or p53 siRNA for 24 hours and treated with CPT (500 nM) or DMSO (control) for 1 and 2 days.” left out, “PD1 or PD-L1 mRNA levels were normalized to 36B4 expression and shown as mean±SD (n=3). Protein levels of PD1 and PD-L1 were examined in EJ-p53tet cells in the absence or presence of tetracycline (tet), ZR75-1 cells treated with CPT (500 nM), or A375 cells exposed to 13 Gy ionizing irradiation for the indicated times.” left out

The subject of test [3] is Jurkat cells expressing DD1α receptor. Kind of test: Ig fusion protein binding to Jurkat cells. The settings on record: several concentrations; anti-Ig-APC detection. The protocol: Jurkat cells overexpressing DD1alpha (transfected with DD1alpha cDNA) or control Jurkat cells were assayed for binding to Ig-fused DD1α or PD-1 proteins. Cells were incubated with several different concentrations of DD1α-Ig (left panels) or PD1-Ig (right panels), and the bound Ig fusion proteins were detected by anti-Ig-APC. Binding amounts were determined by percentage of APC positive cells.

Test [4] deals with mouse DD1α on mouse cells (CD4+ and CD8+ T cells, thymocytes, bone marrow-derived macrophages) (mouse) (UniProt Q9D659). As to the kind of experiment: cell-based or functional assay.
A further test concerns MCF7 cells. Kind of test: p53-mediated induction of checkpoint proteins (western blot). To be noted: 10 μM. Format: cell-based, human. How it is done:
as §1, with “(FIG. 6D) Ig fusion proteins (control Ig, DD1α-Ig, or PD1-Ig) were incubated with lysates from Nutlin-3-treated MCF7 cells and pulled down using protein A/G agarose.” left out, “(FIG. 6E) p53-mediated induction of PD1 and PD-L1. MCF7 cells were treated by Nutlin-3 (10 μM) for 1 to 3 days. MCF7 cells were transfected with control siRNA or p53 siRNA for 24 hours and treated with CPT (500 nM) or DMSO (control) for 1 and 2 days.” left out, “PD1 or PD-L1 mRNA levels were normalized to 36B4 expression and shown as mean±SD (n=3). Protein levels of PD1 and PD-L1 were examined in EJ-p53tet cells in the absence or presence of tetracycline (tet), ZR75-1 cells treated with CPT (500 nM), or A375 cells exposed to 13 Gy ionizing irradiation for the indicated times.” left out
On the technique in general: Immunoblotting shows a protein as a band on a membrane.

Another test concerns the target T1, His-DD1α (33-194) (human, UniProt Q9H7M9 33-194).
T1 construct: not shown: His tag of the pRSET vector (Invitrogen)
As to the kind of experiment: GST pull-down, anti-His immunoblot.

In test [5] the target is T2, DD1α-Ig fusion protein (the extracellular region of DD1α fused with the immunoglobulin G Fc segment) (human, UniProt Q9H7M9 33-194).
T2 construct: also called DD1α-Fc fusion soluble protein; Fc-tagged soluble DD1α protein; not shown: mouse IgG-Fc region of the pCMV6-AC-FC vector (OriGene)
As to the kind of experiment: DD1α-Ig-coated beads on transfected 293T cells. From the text:
Scale bar, 50 μm. […] Scale bar, 100 μm. […] Scale bar, 50 μm.

mouse DD1α on mouse cells (CD4+ and CD8+ T cells, thymocytes, bone marrow-derived macrophages) (mouse), sequence (Q9D659 33-308): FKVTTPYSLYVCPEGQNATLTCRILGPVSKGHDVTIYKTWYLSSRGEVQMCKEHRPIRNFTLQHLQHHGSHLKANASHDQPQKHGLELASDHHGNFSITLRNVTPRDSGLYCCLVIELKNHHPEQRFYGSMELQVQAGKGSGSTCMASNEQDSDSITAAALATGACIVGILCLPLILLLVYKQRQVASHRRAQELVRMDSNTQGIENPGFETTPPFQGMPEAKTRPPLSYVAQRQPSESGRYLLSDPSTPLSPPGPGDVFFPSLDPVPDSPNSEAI

On to “PD-1-Ig: Recombinant human or mouse PD-1-Ig fusion protein from R&D Systems [reference compound]”, for which, in test [1] (DD1α−/− CD4+ T cells), the “reversal of PD-1-Ig-mediated inhibition of CD4+ T cell stimulation” value is reported as about 30%. Moreover, in test [1] (mouse CD4+ T cells, wt), the “inhibition of anti-CD3-induced CD4+ T cell proliferation” value was about 45%. The “pull down of DD1α” value in the test on DD1α (lysates from transfected 293T cells) was “pulled down”. Moreover, the “pull down of endogenous DD1α receptor” value in the test with DD1α (lysates of Nutlin-3-treated MCF7 cells) is on record as “detected”. Moreover, in test [2], the “binding to the surface of DD1α−/− CD4+ T cells compared with wt-CD4+ T cells” value is recorded as “significantly lower”. The “binding to Jurkat cells expressing DD1α receptor” value in test [3] is recorded as “bind”.
As to “DD1α-Ig as used on mouse T cells (Fc fusion)”, in test [4], the inhibition of anti-CD3-induced proliferation of DD1α-/- mouse CD4+ or CD8+ T cells amounted to 30% and the inhibition of anti-CD3-induced proliferation of Wt mouse CD4+ or CD8+ T cells was 50%.
Regarding “PD-1-Ig as used on mouse T cells (Fc fusion)”, in test [4], the inhibition of anti-CD3-induced proliferation of mouse CD4+ T cells stood at 45% and the reversal of PD-1-Ig-mediated inhibition in DD1α-/- CD4+ T cells was 30%.
As to `COc1ccc(C2=N[C@@H](c3ccc(Cl)cc3)[C@@H](c3ccc(Cl)cc3)N2C(=O)N2CCNC(=O)C2)c(OC(C)C)c1` [Nutlin-3], in the test on MCF7 cells, the “CTLA-4 and ICOSL protein levels” value is on record as “did not respond”; the “PD-1 and PD-L1 protein levels” value is on record as “induced”.

B1: GST-DD1α (215-311), the cytoplasmic region (other)
chain: VYKQRQAASNRRAQELVRMDSNIQGIENPGFEASPPAQGIPEAKVRHPLSYVAQRQPSESGRHLLSEPSTPLSPPGPGDVFFPSLDPVPDSPNFEVI
notes: also called the cytoplasmic region of DD1α (GST fusion); not shown: glutathione S-transferase tag of the pGEX-6P-1 vector
As to B1, the binding result with His-DD1α (33-194) is recorded as “no binding”.

B2: DD1α-ΔIgV (immunoglobulin V domain (aa 45-168)-deleted mutant) expressed on transfected cells (receptor)
chain: FKVATPYSLYVCQTGKDAPSNCVVYPSSSQDSENITAAALATGACIVGILCLPLILLLVYKQRQAASNRRAQELVRMDSNIQGIENPGFEASPPAQGIPEAKVRHPLSYVAQRQPSESGRHLLSEPSTPLSPPGPGDVFFPSLDPVPDSPNFEVI
notes: signal peptide 1-32 left out; also called mutant lacking the IgV domain; IgV-deleted DD1α
In the case of B2, the binding result in test [5] was “no binding”.

B3: GST-DD1α-ΔIgV (33-311, ΔIgV) (other)
chain: B2 chain
notes: also called IgV-deleted mutant; IgV-deleted DD1α (GST fusion); not shown: N-terminal GST tag and linker of pGEX-6P-1
Turning to B3, in the test with His-DD1α (33-194), the binding result was “no binding”.
